The values below come from US20090304692A1, “TRIAZINE COMPOUNDS AS PI3 KINASE AND MTOR INHIBITORS” (Wyeth, priority 2008, published 2009).

Like-named read-outs stand apart in the source and are kept apart here. A value given as a limit tells only on which side of the number the result lay.

The IC50 is the concentration needed to halve the response being measured.

One experiment deals with PI3K-α (Homo sapiens, UniProt P42336). The experiment is described as follows: PI3K-alpha fluorescence polarization assay. As to conditions: read-out: IC50 PI3Kα. (In general: Fluorescence polarisation rises when a labelled molecule tumbles more slowly, as on binding a larger partner.)
A further experiment has as its target PI3K-γ (Homo sapiens, UniProt P48736). As to the kind of experiment: PI3K-gamma fluorescence polarization assay.
For experiment [1], the system named is human prostate LNCap tumor cell line. As to the kind of experiment: In vitro cell culture growth assay (MTS), LNCap. As to conditions: Homo sapiens, LNCaP, 72 h, read-out: IC50 LNCap.
Another experiment deals with Human mTOR (FLAG-TOR) (Homo sapiens, UniProt P42345). The experiment is described as follows: mTOR kinase assay (DELFIA format, purified enzyme). In kind it is biochemical. The following applies: read-out: IC50 mTOR.
Chain of Human mTOR (FLAG-TOR) (P42345 1360-2549 limits assumed): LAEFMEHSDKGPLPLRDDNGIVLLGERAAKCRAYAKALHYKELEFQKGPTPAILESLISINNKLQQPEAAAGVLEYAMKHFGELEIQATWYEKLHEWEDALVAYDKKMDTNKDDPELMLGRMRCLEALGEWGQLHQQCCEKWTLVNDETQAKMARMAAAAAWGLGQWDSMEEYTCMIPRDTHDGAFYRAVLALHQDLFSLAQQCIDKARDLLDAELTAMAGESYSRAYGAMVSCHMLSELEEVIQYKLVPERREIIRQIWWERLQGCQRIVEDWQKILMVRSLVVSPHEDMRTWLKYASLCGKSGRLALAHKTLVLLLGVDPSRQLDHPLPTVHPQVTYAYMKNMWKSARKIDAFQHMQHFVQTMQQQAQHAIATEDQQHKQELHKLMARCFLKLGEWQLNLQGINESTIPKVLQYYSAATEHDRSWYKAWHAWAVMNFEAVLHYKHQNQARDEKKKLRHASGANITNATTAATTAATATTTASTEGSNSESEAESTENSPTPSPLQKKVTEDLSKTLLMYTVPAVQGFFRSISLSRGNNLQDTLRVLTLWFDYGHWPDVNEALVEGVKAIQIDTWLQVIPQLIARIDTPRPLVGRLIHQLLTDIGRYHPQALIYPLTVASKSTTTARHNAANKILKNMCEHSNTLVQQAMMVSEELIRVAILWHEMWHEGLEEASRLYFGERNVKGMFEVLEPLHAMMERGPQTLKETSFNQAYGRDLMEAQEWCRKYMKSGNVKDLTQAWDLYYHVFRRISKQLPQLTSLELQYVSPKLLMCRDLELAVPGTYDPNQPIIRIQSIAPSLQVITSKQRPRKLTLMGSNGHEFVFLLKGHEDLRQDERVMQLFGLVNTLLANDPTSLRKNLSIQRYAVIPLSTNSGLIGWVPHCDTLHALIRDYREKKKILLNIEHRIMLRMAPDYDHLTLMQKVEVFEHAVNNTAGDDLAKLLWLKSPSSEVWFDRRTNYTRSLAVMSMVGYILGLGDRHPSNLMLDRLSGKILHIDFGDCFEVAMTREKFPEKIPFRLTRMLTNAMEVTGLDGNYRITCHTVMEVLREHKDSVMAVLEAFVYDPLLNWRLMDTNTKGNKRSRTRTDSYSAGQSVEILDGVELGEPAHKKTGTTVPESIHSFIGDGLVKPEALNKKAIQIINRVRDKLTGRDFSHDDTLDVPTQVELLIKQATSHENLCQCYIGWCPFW

Chain of PI3K-α (P42336 whole entry, species assumed): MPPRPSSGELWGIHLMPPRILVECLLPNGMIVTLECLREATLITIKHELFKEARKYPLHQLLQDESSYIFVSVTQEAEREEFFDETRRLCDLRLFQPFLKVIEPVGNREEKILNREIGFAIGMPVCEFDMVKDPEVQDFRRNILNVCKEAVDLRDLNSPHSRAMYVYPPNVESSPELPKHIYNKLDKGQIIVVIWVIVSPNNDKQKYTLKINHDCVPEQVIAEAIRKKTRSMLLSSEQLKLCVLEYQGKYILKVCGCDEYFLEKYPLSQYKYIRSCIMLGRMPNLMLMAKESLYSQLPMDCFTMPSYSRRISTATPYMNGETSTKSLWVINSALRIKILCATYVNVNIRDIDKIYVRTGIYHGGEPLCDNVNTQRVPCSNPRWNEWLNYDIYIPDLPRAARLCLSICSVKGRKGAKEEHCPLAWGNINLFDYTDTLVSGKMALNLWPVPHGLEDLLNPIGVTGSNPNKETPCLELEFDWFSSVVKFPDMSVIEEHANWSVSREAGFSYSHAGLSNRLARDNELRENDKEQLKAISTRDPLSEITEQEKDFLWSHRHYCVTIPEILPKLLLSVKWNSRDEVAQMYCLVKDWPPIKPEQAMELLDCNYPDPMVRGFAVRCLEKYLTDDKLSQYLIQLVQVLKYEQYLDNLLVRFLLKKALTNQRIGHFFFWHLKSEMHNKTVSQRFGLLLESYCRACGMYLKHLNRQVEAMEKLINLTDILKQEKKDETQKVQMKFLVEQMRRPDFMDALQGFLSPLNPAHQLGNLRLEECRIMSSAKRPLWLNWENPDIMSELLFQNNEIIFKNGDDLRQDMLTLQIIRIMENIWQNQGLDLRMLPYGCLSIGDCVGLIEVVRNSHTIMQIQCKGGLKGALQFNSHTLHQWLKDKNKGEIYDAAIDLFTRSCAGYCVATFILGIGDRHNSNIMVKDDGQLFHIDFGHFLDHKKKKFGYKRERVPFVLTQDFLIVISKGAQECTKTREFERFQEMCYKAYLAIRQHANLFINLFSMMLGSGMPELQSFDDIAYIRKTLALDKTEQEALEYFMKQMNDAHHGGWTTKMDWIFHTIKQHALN
Chain of PI3K-α (P27986 whole entry partner, species assumed): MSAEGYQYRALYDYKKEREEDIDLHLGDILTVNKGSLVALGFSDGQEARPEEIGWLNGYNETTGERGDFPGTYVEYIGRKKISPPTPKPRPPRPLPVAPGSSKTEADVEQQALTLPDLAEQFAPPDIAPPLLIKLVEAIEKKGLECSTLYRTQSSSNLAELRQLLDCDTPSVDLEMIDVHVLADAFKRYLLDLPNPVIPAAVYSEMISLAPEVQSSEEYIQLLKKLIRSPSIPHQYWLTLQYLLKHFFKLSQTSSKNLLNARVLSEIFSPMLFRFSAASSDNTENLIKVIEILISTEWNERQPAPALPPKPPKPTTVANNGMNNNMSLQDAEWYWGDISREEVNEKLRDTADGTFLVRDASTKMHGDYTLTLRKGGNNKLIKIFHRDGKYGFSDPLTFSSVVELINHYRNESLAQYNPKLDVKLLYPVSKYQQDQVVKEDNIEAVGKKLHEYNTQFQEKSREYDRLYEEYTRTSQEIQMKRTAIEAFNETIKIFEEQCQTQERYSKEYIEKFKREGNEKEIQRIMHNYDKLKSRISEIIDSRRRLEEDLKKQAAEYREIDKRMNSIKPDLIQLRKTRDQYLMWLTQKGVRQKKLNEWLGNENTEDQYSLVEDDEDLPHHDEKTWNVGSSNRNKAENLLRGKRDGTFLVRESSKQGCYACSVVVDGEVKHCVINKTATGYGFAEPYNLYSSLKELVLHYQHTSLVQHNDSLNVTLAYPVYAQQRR
Chain of PI3K-γ (P48736 whole entry, species assumed): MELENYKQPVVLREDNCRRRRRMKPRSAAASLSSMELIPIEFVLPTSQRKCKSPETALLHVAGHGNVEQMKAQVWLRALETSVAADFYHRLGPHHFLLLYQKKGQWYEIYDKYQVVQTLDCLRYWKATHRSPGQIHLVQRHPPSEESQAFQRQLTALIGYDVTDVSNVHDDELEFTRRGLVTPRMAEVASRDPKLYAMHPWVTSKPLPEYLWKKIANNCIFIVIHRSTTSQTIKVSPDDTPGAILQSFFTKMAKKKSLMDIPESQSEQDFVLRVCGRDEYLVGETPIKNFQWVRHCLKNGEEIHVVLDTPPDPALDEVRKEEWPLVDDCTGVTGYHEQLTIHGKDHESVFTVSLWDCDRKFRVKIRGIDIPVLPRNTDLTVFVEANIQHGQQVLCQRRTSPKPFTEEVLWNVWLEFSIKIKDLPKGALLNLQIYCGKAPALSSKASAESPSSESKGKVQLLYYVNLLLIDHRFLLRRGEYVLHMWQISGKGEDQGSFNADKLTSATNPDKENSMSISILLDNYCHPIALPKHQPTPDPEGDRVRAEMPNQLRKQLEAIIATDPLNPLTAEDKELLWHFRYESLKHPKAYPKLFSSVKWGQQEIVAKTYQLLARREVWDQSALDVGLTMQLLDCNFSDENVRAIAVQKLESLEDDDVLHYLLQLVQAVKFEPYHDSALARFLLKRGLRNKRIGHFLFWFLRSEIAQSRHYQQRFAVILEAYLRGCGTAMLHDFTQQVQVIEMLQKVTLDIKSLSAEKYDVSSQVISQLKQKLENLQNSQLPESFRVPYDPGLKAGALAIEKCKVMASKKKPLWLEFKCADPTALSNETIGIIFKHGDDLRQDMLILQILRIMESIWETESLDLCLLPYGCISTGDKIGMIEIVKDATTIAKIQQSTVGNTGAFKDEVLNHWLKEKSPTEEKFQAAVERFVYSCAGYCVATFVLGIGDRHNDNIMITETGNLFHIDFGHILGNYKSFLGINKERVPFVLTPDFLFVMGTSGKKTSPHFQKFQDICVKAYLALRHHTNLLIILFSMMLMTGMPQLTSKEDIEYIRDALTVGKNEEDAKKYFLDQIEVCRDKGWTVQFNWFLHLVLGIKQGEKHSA

`C[C@@H]1COCCN1c1nc(-c2ccc(NC(=O)Nc3ccncc3)cc2)nc(N2C[C@@H]3C[C@H]2CO3)n1` [Example 410, 1-(4-(4-((1S,4S)-2-oxa-5-azabicyclo[2.2.1]heptan-5-yl)-6-((R)-3-methylmorpholino)-1,3,5-triazin-2-yl)phenyl)-3-(pyridin-4-yl)urea]: the 50% inhibitory concentration (IC50) stood at 0.826 µM on PI3K-α, 5.68 µM on PI3K-γ (read-out: IC50 PI3Kγ), 0.11 µM in experiment [1] and 0.0023 µM at Human mTOR (FLAG-TOR).

With `C[C@@H]1COCCN1c1nc(-c2ccc(NC(=O)Nc3cccnc3)cc2)nc(N2C[C@@H]3C[C@H]2CO3)n1` [Example 411, 1-(4-(4-((1S,4S)-2-oxa-5-azabicyclo[2.2.1]heptan-5-yl)-6-((R)-3-methylmorpholino)-1,3,5-triazin-2-yl)phenyl)-3-(pyridin-3-yl)urea], the half-inhibitory concentration (IC50) was 1.9 µM at PI3K-α, greater than 10 µM against PI3K-γ, 0.25 µM in experiment [1] and 0.0036 µM on Human mTOR (FLAG-TOR).

Consider `C[C@@H]1COCCN1c1nc(-c2ccc(NC(=O)Nc3ccc(N4CCN(C)CC4)cc3)cc2)nc(N2C[C@@H]3C[C@H]2CO3)n1` [Example 412, 1-(4-(4-((1S,4S)-2-oxa-5-azabicyclo[2.2.1]heptan-5-yl)-6-((R)-3-methylmorpholino)-1,3,5-triazin-2-yl)phenyl)-3-(4-(4-methylpiperazin-1-yl)phenyl)urea], for which the IC50 on PI3K-α worked out at 1.23 µM; on PI3K-γ (read-out: IC50 PI3Kγ) it was 7.48 µM; in experiment [1], 0.025 µM; at Human mTOR (FLAG-TOR) it was 0.0073 µM.

In the case of `C[C@@H]1COCCN1c1nc(-c2ccc(NC(=O)Nc3ccc(CN4CCN(C)CC4)cc3)cc2)nc(N2C[C@@H]3C[C@H]2CO3)n1` [Example 413, 1-(4-(4-((1S,4S)-2-oxa-5-azabicyclo[2.2.1]heptan-5-yl)-6-((R)-3-methylmorpholino)-1,3,5-triazin-2-yl)phenyl)-3-(4-((4-methylpiperazin-1-yl)methyl)phenyl)urea], the IC50 on PI3K-α was 1.52 µM; on PI3K-γ it was greater than 10 µM; in experiment [1] it was 0.15 µM; at Human mTOR (FLAG-TOR), 0.0092 µM.

In the case of `C[C@@H]1COCCN1c1nc(-c2ccc(NC(=O)Nc3ccc(CN4CCCC4)cc3)cc2)nc(N2C[C@@H]3C[C@H]2CO3)n1` [Example 414, 1-(4-(4-((1S,4S)-2-oxa-5-azabicyclo[2.2.1]heptan-5-yl)-6-((R)-3-methylmorpholino)-1,3,5-triazin-2-yl)phenyl)-3-(4-(pyrrolidin-1-ylmethyl)phenyl)urea], the IC50 was 0.969 µM at PI3K-α, 5.45 µM on PI3K-γ (read-out: IC50 PI3Kγ), 0.12 µM in experiment [1] and 0.0069 µM at Human mTOR (FLAG-TOR).

As for `C[C@@H]1COCCN1c1nc(-c2ccc(NC(=O)Nc3cccnc3)cc2)nc(N2C3CCC2COC3)n1` [Example 415, 1-(4-(4-(3-oxa-8-azabicyclo[3.2.1]octan-8-yl)-6-((R)-3-methylmorpholino)-1,3,5-triazin-2-yl)phenyl)-3-(pyridin-3-yl)urea], the IC50 at PI3K-α was found to be 0.787 µM; on PI3K-γ (read-out: IC50 PI3Kγ) it was 3.26 µM; in experiment [1] it was 0.029 µM; on Human mTOR (FLAG-TOR) it was 0.00038 µM.

Consider `C[C@@H]1COCCN1c1nc(-c2ccc(NC(=O)Nc3ccncc3)cc2)nc(N2C3CCC2COC3)n1` [Example 416, 1-(4-(4-(3-oxa-8-azabicyclo[3.2.1]octan-8-yl)-6-((R)-3-methylmorpholino)-1,3,5-triazin-2-yl)phenyl)-3-(pyridin-4-yl)urea], for which the IC50 on PI3K-α came out at 0.446 µM; on PI3K-γ (read-out: IC50 PI3Kγ) it was 2.5 µM; in experiment [1], 0.012 µM; on Human mTOR (FLAG-TOR) it was 0.00055 µM.

As for `C[C@@H]1COCCN1c1nc(-c2ccc(NC(=O)Nc3ccc(CN4CCCC4)cc3)cc2)nc(N2C3CCC2COC3)n1` [Example 418, 1-(4-(4-(3-oxa-8-azabicyclo[3.2.1]octan-8-yl)-6-((R)-3-methylmorpholino)-1,3,5-triazin-2-yl)phenyl)-3-(4-(pyrrolidin-1-ylmethyl)phenyl)urea], the IC50 on PI3K-α was determined as 0.52 µM; on PI3K-γ (read-out: IC50 PI3Kγ), 3.48 µM; in experiment [1] it was 0.04 µM; at Human mTOR (FLAG-TOR), 0.0015 µM.

For `C[C@@H]1COCCN1c1nc(-c2ccc(NC(=O)Nc3ccc(N4CCN(C)CC4)cc3)cc2)nc(C2CCOCC2)n1` [Example 421, (R)-1-(4-(4-(3-methylmorpholino)-6-(tetrahydro-2H-pyran-4-yl)-1,3,5-triazin-2-yl)phenyl)-3-(4-(4-methylpiperazin-1-yl)phenyl)urea], the half-maximal inhibitory concentration (IC50) at PI3K-α is 0.414 µM; at PI3K-γ (read-out: IC50 PI3Kγ), 1.57 µM; in experiment [1], 0.001 µM; on Human mTOR (FLAG-TOR), 0.00072 µM.

`C[C@@H]1COCCN1c1nc(-c2ccc(NC(=O)Nc3ccc(N4CCNCC4)cc3)cc2)nc(C2CCOCC2)n1` [Example 422, (R)-1-(4-(4-(3-methylmorpholino)-6-(tetrahydro-2H-pyran-4-yl)-1,3,5-triazin-2-yl)phenyl)-3-(4-(piperazin-1-yl)phenyl)urea]: the 50% inhibitory concentration (IC50) at PI3K-α worked out at 0.269 µM; on PI3K-γ (read-out: IC50 PI3Kγ), 1.22 µM; in experiment [1], 0.002 µM; at Human mTOR (FLAG-TOR), 0.00079 µM.

Take `CN1CCN(c2ccc(NC(=O)Nc3ccc(-c4nc(N5CC[S+]([O-])CC5)nc(N5C6CCC5COC6)n4)cc3)cc2)CC1` [Example 426, 1-(4-(4-(3-oxa-8-azabicyclo[3.2.1]octan-8-yl)-6-sulfoxymorpholino-1,3,5-triazin-2-yl)phenyl)-3-(4-(4-methylpiperazin-1-yl)phenyl)urea]: the IC50 on PI3K-α came out at 1.22 µM; at PI3K-γ (read-out: IC50 PI3Kγ), 8.48 µM; in experiment [1], 0.7 µM; on Human mTOR (FLAG-TOR), 0.053 µM.

As for `C[C@@H]1COCCN1c1nc(-c2ccc(NC(=O)Nc3ccc(OCCN(C)C)cc3)cc2)nc(C2CCOCC2)n1` [Example 427, (R)-1-(4-(2-(dimethylamino)ethoxy)phenyl)-3-(4-(4-(3-methylmorpholino)-6-(tetrahydro-2H-pyran-4-yl)-1,3,5-triazin-2-yl)phenyl)urea], the IC50 was determined as 0.58 µM on PI3K-α, 1.42 µM at PI3K-γ (read-out: IC50 PI3Kγ), 0.007 µM in experiment [1] and 0.0013 µM at Human mTOR (FLAG-TOR).

For the compound `CCN1CCN(c2ccc(NC(=O)Nc3ccc(-c4nc(C5CCOCC5)nc(N5CCOC[C@H]5C)n4)cc3)cc2)CC1` [Example 428, (R)-1-(4-(4-ethylpiperazin-1-yl)phenyl)-3-(4-(4-(3-methylmorpholino)-6-(tetrahydro-2H-pyran-4-yl)-1,3,5-triazin-2-yl)phenyl)urea], the half-inhibitory concentration (IC50) stood at 0.45 µM on PI3K-α, 0.84 µM at PI3K-γ (read-out: IC50 PI3Kγ), 0.001 µM in experiment [1] and 0.0014 µM at Human mTOR (FLAG-TOR).

Consider `CC(C)N1CCN(c2ccc(NC(=O)Nc3ccc(-c4nc(C5CCOCC5)nc(N5CCOC[C@H]5C)n4)cc3)cc2)CC1` [Example 429, (R)-1-(4-(4-isopropylpiperazin-1-yl)phenyl)-3-(4-(4-(3-methylmorpholino)-6-(tetrahydro-2H-pyran-4-yl)-1,3,5-triazin-2-yl)phenyl)urea], for which the IC50 on PI3K-α was 0.483 µM; on PI3K-γ (read-out: IC50 PI3Kγ), 1.01 µM; in experiment [1], 0.009 µM; at Human mTOR (FLAG-TOR), 0.0019 µM.

In the case of `C[C@@H]1COCCN1c1nc(-c2ccc(NC(=O)Nc3ccc(N4CCC(N(C)C)CC4)cc3)cc2)nc(C2CCOCC2)n1` [Example 430, (R)-1-(4-(4-(dimethylamino)piperidin-1-yl)phenyl)-3-(4-(4-(3-methylmorpholino)-6-(tetrahydro-2H-pyran-4-yl)-1,3,5-triazin-2-yl)phenyl)urea], the half-maximal inhibitory concentration (IC50) was 0.402 µM at PI3K-α, 0.484 µM at PI3K-γ (read-out: IC50 PI3Kγ), 0.016 µM in experiment [1] and 0.0017 µM on Human mTOR (FLAG-TOR).

Consider `C[C@@H]1COCCN1c1nc(-c2ccc(NC(=O)Nc3ccc(C(=O)N4CCN(C)CC4)cc3)cc2)nc(C2CCOCC2)n1` [Example 431, (R)-1-(4-(4-(3-methylmorpholino)-6-(tetrahydro-2H-pyran-4-yl)-1,3,5-triazin-2-yl)phenyl)-3-(4-(4-methylpiperazine-1-carbonyl)phenyl)urea], for which the half-inhibitory concentration (IC50) at PI3K-α was 0.043 µM; at PI3K-γ (read-out: IC50 PI3Kγ), 0.34 µM; in experiment [1], less than 0.0008 µM; at Human mTOR (FLAG-TOR), 0.001 µM.

With `CC(C)N1CCN(C(=O)c2ccc(NC(=O)Nc3ccc(-c4nc(C5CCOCC5)nc(N5CCOC[C@H]5C)n4)cc3)cc2)CC1` [Example 432, (R)-1-(4-(4-isopropylpiperazine-1-carbonyl)phenyl)-3-(4-(4-(3-methylmorpholino)-6-(tetrahydro-2H-pyran-4-yl)-1,3,5-triazin-2-yl)phenyl)urea], the concentration for half-maximal inhibition (IC50) on PI3K-α is 0.09 µM; on PI3K-γ (read-out: IC50 PI3Kγ), 0.48 µM; in experiment [1] it was less than 0.0008 µM; on Human mTOR (FLAG-TOR) it was 0.00069 µM.

For `O=C(Nc1ccc(-c2nc(C3CCOCC3)nc(N3C4CCC3COC4)n2)cc1)Nc1ccc(N2CCN(C3CC3)CC2)cc1` [Example 436, 1-(4-(4-(3-oxa-8-azabicyclo[3.2.1]octan-8-yl)-6-(tetrahydro-2H-pyran-4-yl)-1,3,5-triazin-2-yl)phenyl)-3-(4-(4-cyclopropylpiperazin-1-yl)phenyl)urea], the half-inhibitory concentration (IC50) on PI3K-α turned out to be 0.749 µM; at PI3K-γ (read-out: IC50 PI3Kγ) it was 3.12 µM; in experiment [1] it was 0.01 µM; on Human mTOR (FLAG-TOR) it was 0.00062 µM.

Consider `C[C@@H]1COCCN1c1nc(-c2ccc(NC(=O)Nc3ccc(N4CCN(C5CC5)CC4)cc3)cc2)nc(N2C3CCC2COC3)n1` [Example 442, 1-(4-(4-(3-oxa-8-azabicyclo[3.2.1]octan-8-yl)-6-((R)-3-methylmorpholino)-1,3,5-triazin-2-yl)phenyl)-3-(4-(4-cyclopropylpiperazin-1-yl)phenyl)urea], for which the concentration for half-maximal inhibition (IC50) is 1.76 µM on PI3K-α, greater than 10 µM against PI3K-γ, 0.013 µM in experiment [1] and 0.0015 µM at Human mTOR (FLAG-TOR).
